Earlier results as cited in patent publication US7618965B2, “(Arylamidoanilino)nitroethylene compounds” (OSI Pharmaceuticals, Inc., priority 2004, dated 2009).
Counter-ions that a name gives are not always drawn.

Key:
[1] = tested on: MO7e human leukemia cells
[2] = tested on: MO7e human leukemia cells; remark: listed apart in the source

## Cc1ccc(NC(=O)c2ccc(CN3CCN(C)CC3)cc2)cc1Nc1nccc(-c2cccnc2)n1 [Gleevec, imatinib mesylate]
[1]
  Kit ligand-stimulated growth of MO7e cells: inhibited
[2]
  GM-CSF stimulated growth of MO7e cells: not affected
